What is called IC50 is the concentration at which inhibition is half-maximal.

The first test has as its target T1, TGFβ R1 (Homo sapiens, UniProt P36897).
T1 sequence (P36897 34-503): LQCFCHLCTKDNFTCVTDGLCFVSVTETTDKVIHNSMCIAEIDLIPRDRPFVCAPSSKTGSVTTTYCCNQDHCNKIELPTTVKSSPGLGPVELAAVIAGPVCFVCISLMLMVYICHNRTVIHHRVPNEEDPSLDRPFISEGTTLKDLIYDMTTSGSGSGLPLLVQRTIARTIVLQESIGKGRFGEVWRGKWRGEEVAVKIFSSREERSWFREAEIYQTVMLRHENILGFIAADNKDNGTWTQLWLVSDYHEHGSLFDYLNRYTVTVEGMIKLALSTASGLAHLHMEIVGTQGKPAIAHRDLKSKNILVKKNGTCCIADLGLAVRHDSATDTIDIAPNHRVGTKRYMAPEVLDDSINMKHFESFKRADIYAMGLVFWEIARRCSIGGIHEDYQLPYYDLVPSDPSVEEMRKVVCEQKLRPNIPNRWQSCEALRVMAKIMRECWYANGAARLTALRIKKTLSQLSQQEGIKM
The experiment in a line: TGFβ R1 autophosphorylation protocol (33P-ATP, phosphocellulose filter plate). It is filed as biochemical. As to conditions: 10 uM ATP, 170 nM TGFβ R1, 20 minutes at room temperature, read-out: IC50 for Kinase Inhibition. On the procedure:
The compounds of the invention were tested for their ability to inhibit TGFβ by a TGFβ R^1 autophosphorylation protocol. This was conducted as follows: Compound dilutions and reagents were prepared fresh daily. Compounds were diluted from DMSO stock solutions to 2 times the desired assay concentration, keeping final DMSO concentration in the assay less than or equal to 1%. TGFβ R1 was diluted to 4 times the desired assay concentration in buffer+DTT. ATP was diluted into 4× reaction buffer, and gamma-^33P-ATP was added at 60 uCi/mL.
The assay was performed by adding 10 ul of the enzyme to 20 ul of the compound solution. The reaction was initiated by the addition of 10 ul of ATP mix. Final assay conditions included 10 uM ATP, 170 nM TGFβ R1, and […] in 20 mM MOPS, pH7. The reactions were incubated at room temperature for 20 minutes. The reactions were stopped by transferring 23 ul of reaction mixture onto a phosphocellulose 96-well filter plate, which had been pre-wetted with 15 ul of 0.25M H3PO4 per well. After 5 minutes, the wells were washed 4× with 75 mM H3PO4 and once with 95% ethanol. The plate was dried, scintillation cocktail was added to each well, and the wells were counted in a Packard TopCount microplate scintillation counter.
As for `COc1cnc(-c2cc(Cl)ccc2F)nc1Nc1ccncc1C(=O)NCCCNC(=O)COC1O[C@H](CO)[C@@H](O)[C@H](O)[C@H]1O` (stereo in doubt) [Compound 135, 4-[2-(5-Chloro-2-fluoro-phenyl)-5-methoxy-pyrimidin-4-ylamino]-N-{3[2-(3,4,5-trihydroxy-6-hydroxymethyl-tetrahydro-pyran-2-yloxy)-acetylamino]-propyl)-nicotinamide], the half-inhibitory concentration (IC50) was 60 nM.

Consider `COc1cnc(-c2cc(Cl)ccc2F)nc1Nc1ccncc1C(=O)NCCCN(C)C` [Compound 7, 4-[2-(5-Chloro-2-fluoro-phenyl)-5-methoxy-pyrimidin-4-ylamino]-N-(3-dimethylamino-propyl)-nicotinamide], for which the IC50 turned out to be 30 nM. Same read-out and setting: with `COc1cnc(-c2cc(Cl)ccc2F)nc1Nc1ccncc1C(=O)NCCCN1CCN(C)CC1` [Compound 38, 4-[2-(5-Chloro-2-fluoro-phenyl)-5-methoxy-pyrimidin-4-ylamino]-N-[3-(4-methyl-piperazin-1-yl)-propyl]-nicotinamide] the figure was 540 nM; with `COc1cnc(-c2cc(Cl)ccc2F)nc1Nc1ccncc1C(=O)NCC1CN(C(=O)OC(C)(C)C)C1` [Compound 105], 240 nM; with `COc1cnc(-c2cc(Cl)ccc2F)nc1Nc1ccncc1C(=O)NCCNCCOC1O[C@H](COC(C)=O)[C@H](OC(C)=O)[C@H](OC(C)=O)[C@H]1OC(C)=O` (stereo partly shown) [Compound 157, Acetic acid 3,4,5-triacetoxy-6-{2-[2-[{4-[2-(5-chloro-2-fluoro-phenyl)-5-methoxy-pyrimidin-4-ylamino]-pyridine-3-carbonyl}amino)-ethylamino]-ethoxy}-tetrahydro-pyran-2-ylmethyl-ester], 25 nM. For the molecule `O=C(NC1CC1)c1cnccc1Nc1nc(-c2cc(Cl)ccc2F)ncc1N1CCCC1` [Compound 21, 4-[2-(5-Chloro-2-fluoro-phenyl)-5-pyrrolidin-1-yl-pyrimidin-4-ylamino]-N-cyclopropyl-nicotinamide], the IC50 is 180 nM. In the case of `COc1cnc(-c2cc(Cl)ccc2F)nc1Nc1ccncc1C(=O)NCC(C)(C)O` [Compound 58, 4-[2-(5-Chloro-2-fluoro-phenyl)-5-methoxy-pyrimidin-4-ylamino]-N-(2-hydroxy-2-methyl-propyl)-nicotinamide], the IC50 is 470 nM. Still for that read-out and setting: the same measure for `COc1cnc(-c2cc(Cl)ccc2F)nc1Nc1ccncc1C(=O)NC1CN(C(=O)OC(C)(C)C)C1` [Compound 86, 3-({4-[2-(5-Chloro-2-fluoro-phenyl)-5-methoxy-pyrimidin-4-ylamino]-pyridine-3-carbonyl}-amino)-azetidine-1-carboxylic acid tert-butyl ester]: 310 nM.

Regarding `CNC(=O)c1cnccc1Nc1nc(-c2cc(Cl)ccc2F)ncc1Br` [Compound 93, 4-[5-Bromo-2-(5-chloro-2-fluoro-phenyl)-pyrimidin-4-ylamino]-N-methyl-nicotinamide], the IC50 worked out at 30 nM.

In the case of `CN(C)c1cnc(-c2cc(Cl)ccc2F)nc1Nc1ccncc1C(=O)NCC(C)(C)O` [Compound 51], the IC50 is 120 nM. The same measure, in the same setting: the same measure for `COc1cnc(-c2cc(Cl)ccc2F)nc1Nc1ccncc1C(=O)NCCNC(=O)NC(C)C` [Compound 80, 4-[2-(5-Chloro-2-fluoro-phenyl)-5-methoxy-pyrimidin-4-ylamino]-N-[2-(3-isopropyl-ureido)-ethyl]-nicotinamide]: 570 nM; for `COc1cnc(-c2cc(Cl)ccc2F)nc1Nc1ccncc1C(=O)NCC(C)C(=O)O` (stereo not shown) [Compound 56, 3-({4-[2-(5-Chloro-2-fluoro-phenyl)-5-methoxy-pyrimidin-4-ylamino)-pyridine-3-carbonyl)-amino)-2-methyl-propionic acid]: 1200 nM; for `COc1cnc(-c2cc(Cl)ccc2F)nc1Nc1ccncc1C(=O)NCCCN1CCC[C@H]1C(N)=O` [Compound 123, N-[3-(2-Carbamoyl-pyrrolidin-1-yl)-propyl]-4-[2-(5-chloro-2-fluoro-phenyl)-5-methoxy-pyrimidin-4-ylamino]-nicotinamide]: 23 nM. On the same count and under the same terms, with `O=C(NC1CC1)c1cnccc1Nc1nc(-c2cc(Cl)ccc2F)ncc1Cl` [Compound 92, 4-[5-Chloro-2-(5-chloro-2-fluoro-phenyl)-pyrimidin-4-ylamino]-N-cyclopropyl-nicotinamide] the figure was 130 nM.

Consider `COc1cnc(-c2cc(Cl)ccc2F)nc1Nc1ccncc1C(=O)NCCCNC(=O)CC1O[C@H](CO)[C@@H](O)[C@H](O)[C@H]1O` (stereo partly shown) [Compound 146], for which the IC50 was found to be 102 nM.

The test is the same for the next values; noted with them: 10 uM ATP, 170 nM TGFβ R1, room temperature 20 minutes, read-out: IC50 for Kinase Inhibition.
In the case of `COc1cnc(-c2cc(Cl)ccc2F)nc1Nc1ccncc1C(=O)NCCNCCOC1O[C@@H](CO)[C@H](O)[C@@H](O)[C@@H]1O` (stereo partly shown) [Compound 185], the IC50 stood at 9 nM.

For `CC(C)c1cnc(-c2cc(Cl)ccc2F)nc1Nc1ccncc1C(=O)NCCCO` [Compound 188, 4-[2-(5-Chloro-2-fluoro-phenyl)-5-isopropyl-pyrimidin-4-ylamino]-N-(3-hydroxy-propyl)-nicotinamide], the half-inhibitory concentration (IC50) was 5 nM. Still for that read-out and setting: with `CNC(=O)[C@H]1CCCN1CCCNC(=O)c1cnccc1Nc1nc(-c2cc(Cl)ccc2F)ncc1C(C)C` [Compound 182, 4-[2-(5-Chloro-2-fluoro-phenyl)-5-isopropyl-pyrimidin-4-ylamino]-N-[3-(2-methylcarbamoyl-pyrrolidin-1-yl)-propyl]-nicotinamide] the figure was 11 nM; with `COc1cnc(-c2cc(Cl)ccc2F)nc1Nc1ccncc1C(=O)NCCNCC[C@@H]1OC[C@@H](O)[C@H](O)[C@H]1O` [Compound 170, 4-[2-(5-Chloro-2-fluoro-phenyl)-5-methoxy-pyrimidin-4-ylamino]-N-{2-[2-(3,4,5-trihydroxy-tetrahydro-pyran-2-yl)-ethylamino]-ethyl}-nicotinamide], 6 nM; with `CC(C)c1cnc(-c2cc(Cl)ccc2F)nc1Nc1ccncc1C(=O)N1CCN(C)CC1` [Compound 208, {4-[2-(5-Chloro-2-fluoro-phenyl)-5-isopropyl-pyrimidin-4-ylamino]-pyridin-3-yl}-(4-methyl-piperazin-1-yl)-methanone], 1620 nM. For the molecule `CC(C)c1cnc(-c2cc(Cl)ccc2F)nc1Nc1ccncc1C(=O)NC[C@H](C)OC(=O)CN` [Compound 229, Amino-acetic acid 2-{[4-[2-(5-chloro-2-fluoro-phenyl)-5-isopropyl-pyrimidin-4-ylamino]-pyridine-3-carbonyl}-amino]-1-methyl-ethyl ester], the concentration for half-maximal inhibition (IC50) was 19 nM. In the case of `COCCCNC(=O)c1cnccc1Nc1nc(-c2cc(Cl)ccc2F)ncc1C(C)C` [Compound 186, 4-[2-(5-Chloro-2-fluoro-phenyl)-5-isopropyl-pyrimidin-4-ylamino]-N-(3-methoxy-propyl)-nicotinamide], the IC50 amounted to 11 nM. Still for that read-out and setting: with `CCNC(=O)[C@@H]1CCCN1CCCNC(=O)c1cnccc1Nc1nc(-c2cc(Cl)ccc2F)ncc1OC` [Compound 167, 4-[2-(5-Chloro-2-fluoro-phenyl)-5-methoxy-pyrimidin-4-ylamino]-N-[3-(2-ethylcarbamoyl-pyrrolidin-1-yl)-propyl]-nicotinamide] the figure was 28 nM; with `COc1cnc(-c2cc(Cl)ccc2F)nc1Nc1ccncc1C(=O)N1CCOCC1` [Compound 203, {4-[2-(5-Chloro-2-fluoro-phenyl)-5-methoxy-pyrimidin-4-ylamino]-pyridin-3-yl}-morpholin-4-yl-methanone], 176 nM; with `CC(O)CNC(=O)c1c[n+]([O-])ccc1Nc1nc(-c2cc(Cl)ccc2F)ncc1C(C)C` (stereo not shown) [Compound 198, 4-[2-(5-Chloro-2-fluoro-phenyl)-5-isopropyl-pyrimidin-4-ylamino]-N-(2-hydroxy-propyl)-1-oxy-nicotinamide], 148 nM. For `COc1cnc(-c2cc(Cl)ccc2F)nc1Nc1cc[n+]([O-])cc1C(=O)NC[C@H](C)O` [Compound 197, 4-[2-(5-Chloro-2-fluoro-phenyl)-5-methoxy-pyrimidin-4-ylamino]-N-(2-hydroxy-propyl)-1-oxy-nicotinamide], the IC50 stood at 675 nM. The same measure, in the same setting: with `CC(C)c1cnc(-c2cc(Cl)ccc2F)nc1Nc1ccncc1C(=O)NC1C[C@@H]1CO` (stereo in doubt) [Compound 215, 4-[2-(5-Chloro-2-fluoro-phenyl)-5-isopropyl-pyrimidin-4-ylamino]-N-(2-hydroxymethyl-cyclopropyl)-nicotinamide] the figure was 5 nM; with `O=C(c1cnccc1Nc1nc(-c2cc(Cl)ccc2F)ncc1C1CCCC1)N1CCOCC1` [Compound 227, {4-[2-(5-Chloro-2-fluoro-phenyl)-5-cyclopentyl-pyrimidin-4-ylamino]-pyridin-3-yl}-morpholin-4-yl-methanone], 330 nM.

For the origin of these results see patent US20060281763A1, “Carboxamide inhibitors of TGFbeta” (priority 2005, published 2006).
